In one experiment the test system is AtHAB1ΔN with CsPYL1. Briefly: PP2C inhibition assay, HAB1 with CsPYL1. The conditions noted are these: fig. S1C; AtPYL5, AtPYL10 and PYL1-like receptors. In kind it is biochemical, Citrus sinensis (CsPYL1); Arabidopsis thaliana (HAB1). The procedure:
(§1) His-tagged receptors and phosphatases were purified using nickel–nitrilotriacetic acid (Ni-NTA) affinity chromatography. Protein integrity was analyzed by SDS–polyacrylamide gel electrophoresis, followed by InstantBlue staining. Phosphatase activity was measured using p-Nitrophenyl Phosphate (pNPP) (25 mM) as substrate, 10 mM MnCl2,1 μM PP2C, and 2 μM of the indicated receptors. […] Assays were repeated twice. For dose-response experiments, IC50 values were obtained with GraphPad Prism 9 using a nonlinear regression curve fit. Each ligand concentration was tested in triplicate. Phosphatase activity of ABI1 was measured using RRA(phosphoT)VA peptide as a substrate, as described ([27]).

In experiment [1] the target is T1, ΔNHAB1 with AtPYL10 (Arabidopsis thaliana, UniProt Q8H1R0).
T1 construct: His; made in house
T1 sequence (Q8H1R0 whole entry, stated change not applied): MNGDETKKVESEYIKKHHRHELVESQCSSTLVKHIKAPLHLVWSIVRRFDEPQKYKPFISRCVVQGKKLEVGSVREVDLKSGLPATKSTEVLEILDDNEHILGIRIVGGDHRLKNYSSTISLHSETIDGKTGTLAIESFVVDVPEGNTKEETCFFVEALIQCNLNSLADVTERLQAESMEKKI
Briefly: PP2C inhibition assay, HAB1 with AtPYL10. It counts as biochemical. As for the experimental part:
(§2) His-tagged receptors and phosphatases were purified using nickel–nitrilotriacetic acid (Ni-NTA) affinity chromatography. Protein integrity was analyzed by SDS–polyacrylamide gel electrophoresis, followed by InstantBlue staining. Phosphatase activity was measured using p-Nitrophenyl Phosphate (pNPP) (25 mM) as substrate, 10 mM MnCl2,1 μM PP2C, and 2 μM of the indicated receptors. Proteins were incubated with the ligands for 10 min at room temperature. pNPP was then added to start the reactions, and the absorbance at 405 nm was monitored for 20 min in a ViktorX5 plate reader. Assays were repeated twice. For dose-response experiments, IC50 values were obtained with GraphPad Prism 9 using a nonlinear regression curve fit. Each ligand concentration was tested in triplicate. Phosphatase activity of ABI1 was measured using RRA(phosphoT)VA peptide as a substrate, as described ([27]).

The test system of experiment [2] is ΔNHAB1 with AtPYL10. Briefly: PP2C inhibition assay, HAB1 with AtPYL10. It counts as biochemical, Arabidopsis thaliana. The conditions noted are these: more sensitive. The procedure: as §2
Experiment [3] relates to Arabidopsis thaliana seedlings (WT Col-0, overexpressing lines, receptor mutants). Briefly: Seedling establishment assay. In kind it is in vivo. The procedure:
Seedling establishment was scored as the percentage of seeds that developed green expanded cotyledons and the first pair of true leaves at 5 or 7 days. Seedling establishment assays in the presence of ABA receptor agonists were performed in 24-well plates, where approximately 25 to 35 seeds per well were sown. Each well contained a different treatment. The experiment was repeated at least twice.

The next experiment deals with HAB1 with SlPYL1. Briefly: PP2C inhibition assay, HAB1 with SlPYL1. It counts as biochemical, Solanum lycopersicum (SlPYL1); Arabidopsis thaliana (HAB1). To be noted: 100 μM SB. As for the experimental part:
as §2

Experiment [4] has as its system AtHAB1ΔN with CsPYL1^5m. Briefly: PP2C inhibition assay, HAB1 with CsPYL1^5m. The conditions noted are these: lower for the synthetic receptor. It counts as biochemical, Citrus sinensis (CsPYL1^5m); Arabidopsis thaliana (HAB1). As for the experimental part: as §1
The target of experiment [5] is AtHAB1ΔN with CsPYL1^5m (Citrus sinensis, UniProt A0A067E666, F137I/T135L/T153I/V112L/V168A). Briefly: PP2C inhibition assay, HAB1 with CsPYL1^5m. In kind it is biochemical, Citrus sinensis (CsPYL1^5m); Arabidopsis thaliana (HAB1). The conditions noted are these: IC50 for inhibition of HAB1 (ΔNHAB1) in the presence of CsPYL1^5m, pNPP as substrate. As for the experimental part:
as §1

Experiment [6] deals with Arabidopsis thaliana seedlings. Briefly: Root growth assay. It counts as in vivo. The conditions noted are these: for reduction of root growth: 50 μM SB. The procedure:
Seedlings were grown on vertically oriented Murashige and Skoog (MS) plates for 4 to 5 days. Afterward, seedlings were transferred to MS supplemented with the indicated concentrations of the different ligands and kept on vertical orientation. Ten days later, the plates were scanned on a flatbed scanner to produce image files suitable for quantitative analysis of root growth using the NIH Image software ImageJ. The experiment was performed in triplicate (n = 13 to 16). Statistical comparisons were performed by either pairwise t tests or one-way ANOVA using GraphPad Prism 9.

The target in another experiment is T2, ΔNHAB1 with AtPYL1 (Arabidopsis thaliana, UniProt Q8VZS8).
T2 construct: His; made in house
T2 sequence (Q8VZS8 whole entry, stated change not applied): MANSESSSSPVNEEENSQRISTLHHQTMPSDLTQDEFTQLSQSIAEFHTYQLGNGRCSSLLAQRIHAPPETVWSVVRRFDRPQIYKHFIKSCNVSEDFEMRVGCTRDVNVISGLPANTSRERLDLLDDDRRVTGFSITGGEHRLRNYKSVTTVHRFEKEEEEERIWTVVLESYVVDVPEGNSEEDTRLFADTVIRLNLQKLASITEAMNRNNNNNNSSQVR
Briefly: PP2C inhibition assay, HAB1 with AtPYL1. It counts as biochemical. The procedure: as §2

Another experiment concerns the target T3, ΔNHAB1 with AtPYL5 (Arabidopsis thaliana, UniProt Q9FLB1).
T3 construct: His; made in house
Briefly: PP2C inhibition assay, HAB1 with AtPYL5. It counts as biochemical. As for the experimental part: as §2

The mark [7] stands for this setting: read-out: inhibition of HAB1 phosphatase activity.

“And” between values parts separate entries of the source, which are not always exact repeats. Equal entries are not always repeated.

T3 sequence (Q9FLB1 whole entry, stated change not applied): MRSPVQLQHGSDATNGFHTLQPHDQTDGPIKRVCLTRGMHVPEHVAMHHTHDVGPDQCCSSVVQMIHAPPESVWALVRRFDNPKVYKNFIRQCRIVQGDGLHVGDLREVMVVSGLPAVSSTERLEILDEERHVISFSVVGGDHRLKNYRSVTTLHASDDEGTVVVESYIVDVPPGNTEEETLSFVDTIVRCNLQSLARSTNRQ
AtHAB1ΔN with CsPYL1^5m (Citrus sinensis, UniProt A0A067E666, F137I/T135L/T153I/V112L/V168A), sequence (A0A067E666 1-209 V112L/T135L/F137I/T153I/V168A): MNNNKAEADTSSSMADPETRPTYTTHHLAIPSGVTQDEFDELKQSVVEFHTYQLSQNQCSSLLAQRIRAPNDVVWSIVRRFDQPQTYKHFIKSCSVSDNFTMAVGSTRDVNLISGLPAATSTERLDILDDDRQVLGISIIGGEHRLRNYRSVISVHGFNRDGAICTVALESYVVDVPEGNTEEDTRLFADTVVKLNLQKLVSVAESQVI
AtHAB1ΔN with CsPYL1^5m (Citrus sinensis, UniProt A0A067E666, F137I/T135L/T153I/V112L/V168A), sequence (Q9CAJ0 179-511 partner): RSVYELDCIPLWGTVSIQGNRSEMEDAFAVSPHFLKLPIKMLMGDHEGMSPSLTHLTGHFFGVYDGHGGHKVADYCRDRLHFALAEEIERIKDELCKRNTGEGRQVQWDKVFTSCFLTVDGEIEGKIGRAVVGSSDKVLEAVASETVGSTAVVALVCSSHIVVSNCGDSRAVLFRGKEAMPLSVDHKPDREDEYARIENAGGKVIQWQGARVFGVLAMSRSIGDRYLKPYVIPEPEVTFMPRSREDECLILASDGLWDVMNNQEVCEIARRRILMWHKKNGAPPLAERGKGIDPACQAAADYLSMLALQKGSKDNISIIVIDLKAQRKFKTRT

As for `Cc1cc(=O)n(C)c2ccc(S(=O)(=O)NCc3ccccc3)cc12` [SB, N-benzyl-1,4-dimethyl-2-oxo-1,2-dihydroquinoline-6-sulfonamide], in the experiment on AtHAB1ΔN with CsPYL1, the “inhibition of HAB1 activity by candidate molecules of the in silico screening” value is reported as “able to inhibit HAB1 activity”. For the same compound, the “IC50 of SB relative to IC50 of ABA” value is recorded as “fourfold higher” at ΔNHAB1 with AtPYL10 [1] (AtPYL10); “circa 30 fold” against ΔNHAB1 with AtPYL1 (PYL1, higher than ABA); “circa 30 fold” against ΔNHAB1 with AtPYL5 (PYL5, higher than ABA). Moreover, the half-inhibitory concentration (IC50) (usually the concentration at which inhibition is half-maximal) was 506 ± 56 nM at ΔNHAB1 with AtPYL10 [1] (Fig. 1B, read-out: IC50 for SB-dependent inhibition of ΔNHAB1 by AtPYL10); 877 nM and 876 nM on AtHAB1ΔN with CsPYL1^5m [5]; 10.1 ± 1.99 µM at ΔNHAB1 with AtPYL1 (Fig. 1B, read-out: IC50 for SB-dependent inhibition of ΔNHAB1 by AtPYL1); 877 ± 6 nM on ΔNHAB1 with AtPYL5 (Fig. 1B, read-out: IC50 for SB-dependent inhibition of ΔNHAB1 by AtPYL5). Besides, the inhibition at 100 µM at ΔNHAB1 with AtPYL10 [1] (setting [7]) and at ΔNHAB1 with AtPYL5 (setting [7]) was above 75% throughout. For the same compound, the “sensitivity to SB of PYL10 relative to PYL1 members” value in the experiment with ΔNHAB1 with AtPYL10 [2] worked out at 20 fold. The “inhibition of seedling establishment” value in experiment [3] (35S:CsPYL1^5m lines, 10 μM SB) is “sensitive”; in experiment [3] (35S:CsPYL1 lines, even by 100 μM SB) it was “not affected”; in [3] (PYL5- and PYL10-overexpressing lines, 50 to 100 μM SB), “reduced the seedling establishment”; in [3] (WT seeds, even at 100 μM), “not active”. Further, the “dosage required to inhibit seedling establishment relative to ABA” value in experiment [3] (CsPYL1^5m lines, higher than ABA) is 20 fold. Also, the “reduction of phosphatase activity” value with HAB1 with SlPYL1 is “around 50%”. Further, the “IC50 of SB for CsPYL1^5m relative to WT CsPYL1” value with AtHAB1ΔN with CsPYL1^5m [4] is reported as 12 fold. The “reduction of root growth” value in [6] (PYL5- and PYL10-overexpressing lines) is reported as 40%; in experiment [6] (WT seedlings), 20%. In experiment [6] (sextuple 112458 mutant), the “effect on root growth” value is “resistant”.
